Measurements reported in PubChem BioAssay AID493191 (Broad Institute, 2011).

Test system: MALME3 melanoma viability, CellTiter-Glo luminescence, 24 h
Experiment: growth inhibition of MALME3 cells – cell-based, CellTiter-Glo, cherry-picked, orthogonal assay for MITF inhibitor project, dose response (AID 493191)

Row | Compound | AC50
1 | Cc1cc(-n2c(SCC(=O)NCCC3=CCCCC3)nc3n[nH]c(C)c3c2=N)ccc1Cl | 28.6 µM
2 | O=C(Cn1ncc(Cl)c(Cl)c1=O)N1CCOCC1 | 20.6 µM
3 | CC1=C(CC(=O)c2ccccc2)C(=O)c2ccccc2C1=O | 12.7 µM
4 | Cc1cc(NC(=O)c2ccc([N+](=O)[O-])o2)ccc1NC(=O)c1ccco1 | 12.5 µM
5 | O=C(N/N=C/c1ccc(O)c2ncccc12)c1cccc(Br)c1 | 14.7 µM
6 | CCOc1ccc(-n2c(C)cc(C(=O)CCl)c2C)cc1 | 19.9 µM
7 | COC1=C(Nc2ccc(O)cc2)C(=O)c2ccccc2C1=O | 14.3 µM
8 | Cc1cc(NC(=O)c2cncc(Br)c2)ccc1NC(=O)c1cc2ccccc2o1 | 17 µM
9 | Cc1ccc(-c2nc(C(=O)NCCCN(C)C)cc3c2[nH]c2ccccc23)cc1 | 31.1 µM
10 | Cc1ccc(NC(=O)c2ncn(CCCN[C@H](C)c3cccc4ccccc34)n2)cc1C | 29.2 µM
11 | CCOC(=O)c1cc([N+](=O)[O-])c([N+](=O)[O-])cc1NC(C)=O | 29.9 µM
12 | O=C(NC1CCCC(C(F)(F)F)C1)c1ccc([N+](=O)[O-])o1 (centres undefined) | 20.8 µM
13 | O=C(N/N=C/c1cccc2cccnc12)c1ccccc1O | 29.7 µM
14 | Cc1ccc(NC(=O)Cn2ncc(Cl)c(Cl)c2=O)cc1S(=O)(=O)N1CCCCC1 | 15.8 µM
15 | O=C(CCl)Nc1cccc(-c2cnc3ccccc3n2)c1 | 15.2 µM
16 | COc1ccc(CNCCC(c2ccc(F)cc2)c2ccc(OC)cc2)cc1 (centres undefined) | 22 µM
17 | O=C(CNc1cccc([N+](=O)[O-])c1)N/N=C/c1ccc([N+](=O)[O-])o1 | 16.9 µM
18 | O=C1C(Cl)=C(N2CCN(c3ccccc3[N+](=O)[O-])CC2)C(=O)c2ccccc21 | 18.2 µM
19 | O=C(COc1ccc(Cl)cc1Cl)Nc1ccccn1 | 14.5 µM
20 | CCC(=O)OCCNc1cc(Sc2nccn2C)c2nonc2c1[N+](=O)[O-] | 27.4 µM
21 | CC1CCC(C(C)C)C(OC(=O)Cn2c(-c3ccc(Cl)cc3)[n+](C)c3ccccc32)C1 (centres undefined) | 11.7 µM
22 | CCc1ccc(NC2=CC(=O)C(=O)c3ccccc32)cc1 | 6.91 µM

Row | Compound | AC50
23 | Cc1ccc(NCC(=O)N/N=C\c2ccc([N+](=O)[O-])o2)cc1 | 25.3 µM
24 | CCCNC(=O)COC(=O)c1ccccc1C(=O)c1ccc(Cl)c([N+](=O)[O-])c1 | 16.3 µM
25 | CCN1CCCC1CNC(=O)c1ccc2c(c1)NC(=O)/C(=C\c1ccc(C)cc1)S2 (centres undefined) | 26 µM
26 | CC1=CC2/C=C(\C)CCC(O)C(O)/C=C/C(=O)C23C(=O)NC(CC(C)C)C3C1C (centres undefined) | 12.6 µM
27 | O=C(Nc1ccc(F)cc1)c1nc(S(=O)(=O)Cc2ccccc2)ncc1Cl | 12 µM
28 | O=C(N/N=C\c1ccc([N+](=O)[O-])s1)c1cncc(Br)c1 | 20.2 µM
29 | CC1CCCC(NCC(O)COC(c2ccc(F)cc2)c2ccc(F)cc2)C1C (centres undefined) | 20.5 µM
30 | O=C(CCl)Nc1cccc(S(=O)(=O)N2CCCCCC2)c1 | 17.9 µM
31 | Cc1ccc(C(C)C)c(OCc2nn(CC(=O)c3ccc(OC(F)F)cc3)c3[n+]2CCCCC3)c1 | 24.2 µM
32 | COc1ccc(C(=O)/C=C/C(=O)N(CC(=O)NC2CCCCC2)Cc2ccccc2)c(O)c1 | 6.88 µM
33 | Cc1ccc(C)c(C(=O)Cn2ncc(Cl)c(Cl)c2=O)c1 | 16 µM
34 | CCC(C)(C)c1ccc(OCCCC[n+]2ccccc2)c(C(C)(C)CC)c1 | 10.8 µM
35 | COc1cc(NC(=O)c2[nH]cnc2C(N)=O)cc(C(=O)Nc2cccc(C(F)(F)F)c2)c1 | 11.2 µM
36 | O=c1c(Cl)c(Cl)cnn1Cc1ccc(F)cc1 | 31.6 µM
37 | O=C(NCC1CCCCC1)C1(CC2CC(c3cccc(Br)c3)=NO2)CCNCC1 (centres undefined) | 24.4 µM
38 | Cc1ccc(NC(=O)CCC(=O)N/N=C/c2ccc([N+](=O)[O-])o2)cc1C | 21.9 µM
39 | Cc1[nH]c2ccccc2c1C(=O)CCl | 27.6 µM
40 | CCn1c(=O)c([N+](=O)[O-])c(Cl)c2ccccc21 | 27.9 µM
41 | N=c1n(Cc2ccc(Cl)cc2)c2ccccc2n1CC(O)COc1ccccc1 (centres undefined) | 14.8 µM
42 | O=C(COc1ccccc1)N/N=C/c1ccc([N+](=O)[O-])o1 | 18.6 µM
43 | O=C(N/N=C/c1ccc([N+](=O)[O-])s1)C(O)c1ccccc1 (centres undefined) | 22.7 µM
44 | CCN(CC)S(=O)(=O)c1ccc(N2CCCC2)c(NC(=O)c2ccc([N+](=O)[O-])o2)c1 | 19.5 µM

Row | Compound | AC50
45 | Cc1c(N=C2C=CC(=O)c3ccccc32)c(=O)n(-c2ccccc2)n1C | 32 µM
46 | CC(C)(C)NC(=O)CCN(/N=C/c1ccc([N+](=O)[O-])o1)C1=NS(=O)(=O)c2ccccc21 | 31.9 µM
47 | CCCCn1c(=N)n(CC(=O)c2ccc(Br)s2)c2ccccc21 | 33.2 µM
48 | O=C(Nc1ccc(S(=O)(=O)NC2=NCCCCC2)cc1)c1ccc([N+](=O)[O-])s1 | 18.4 µM
49 | COc1ccc(Oc2cc(NC(=O)c3nn(C)cc3[N+](=O)[O-])cc([N+](=O)[O-])c2)cc1 | 17.7 µM
50 | N#CCc1ccc(NC(=O)/C=C/c2ccc([N+](=O)[O-])o2)cc1 | 10.4 µM
51 | Cc1nc2ccccn2c1C(=O)N/N=C/c1ccc([N+](=O)[O-])o1 | 34 µM
52 | O=C(Nc1ccccc1N1CCOCC1)c1ccc([N+](=O)[O-])s1 | 30.9 µM
53 | CC(C)(C)C(=O)/C(=C/c1ccncc1)n1cncn1 | 21.9 µM
54 | COc1ccc(-c2cc(-c3ccccc3)c(C#N)c(S(C)=O)n2)cc1 (centres undefined) | 23.8 µM
55 | COc1cc2c(cc1OC)C(c1ccccc1)N(C(=O)CCl)CC2 (centres undefined) | 18 µM
56 | Cc1ccc2[nH]c(=O)c(CN(CCCN(C)C)C(=O)Nc3cccc(Cl)c3)cc2c1 | 24.9 µM
57 | Cc1ccc(NC(=O)c2ccc([N+](=O)[O-])o2)cc1S(=O)(=O)N1CCOCC1 | 26.1 µM
58 | Cc1ccc(Oc2c(C(N)=O)cc([N+](=O)[O-])cc2[N+](=O)[O-])cc1 | 25.9 µM
59 | CS(=O)(=O)c1ncc(Cl)c(C(=O)Nc2ccc3ccccc3c2)n1 | 15.2 µM
60 | CN(C(=O)/C=C/c1ccc([N+](=O)[O-])s1)c1ccccc1 | 34.4 µM
61 | COc1ccc(N(Cc2cc(=O)[nH]c3ccccc23)C(=O)CCl)cc1 | 15.8 µM
62 | Cc1ccc([N+](=O)[O-])cc1N1C(=O)CS/C1=N\NC(=O)c1cccnc1 | 24.2 µM
63 | CCOC(=O)CSC1=NC(=O)/C(=C/c2ccc(OC)cc2)S1 | 3.6 µM
64 | CC1(C(=O)N/N=C/c2ccc([N+](=O)[O-])o2)CC1(Br)Br (centres undefined) | 34 µM
65 | CC(NC(=O)C12CC3CC(CC(C3)C1)C2)C(=O)NN=Cc1ccc([N+](=O)[O-])o1 (centres undefined) | 26.9 µM
66 | C=CCn1c(C)cc(C2=NNC(=NCC)SC2)c1C | 17.6 µM

Row | Compound | AC50
67 | Cc1ccccc1C(=O)N/N=C/c1ccc([N+](=O)[O-])s1 | 30.9 µM
68 | O=C(CCl)N1CCN(S(=O)(=O)c2ccc3c(c2)CCC3)CC1 | 25.5 µM
69 | O=C(CCl)N1N=C(c2ccco2)CC1c1cccs1 (centres undefined) | 23 µM
70 | CCOC(=O)c1cc2sccc2n1CC(=O)N1c2ccccc2CC1C (centres undefined) | 25 µM
71 | O=C(Nc1cc(-c2nc3ncccc3o2)ccc1Cl)c1ccc([N+](=O)[O-])o1 | 18.2 µM
72 | COC(=O)CCS(=O)(=O)c1nc(-c2ccccc2)cc(C(F)(F)F)n1 | 14.9 µM
73 | CC(C)C(CCNC1CCN(C)CC1)c1ccc(Cl)cc1 (centres undefined) | 24.3 µM
74 | CCCCN1C=CC(=C2C(=O)c3ccccc3C2=O)C=C1 | 27.3 µM
75 | CC1C/C(=C\c2cccnc2)C(=O)/C(=C/c2cccnc2)C1 (centres undefined) | 3.9 µM
76 | CC(C)Oc1ccc(C(CCN)C2CCCCC2)cc1 (centres undefined) | 14.6 µM
77 | Cc1cc(C)c2sc(N(CCCN(C)C)C(=O)COc3ccc(Cl)cc3)nc2c1 | 32.7 µM
78 | CN1CCN(C2=C(NS(=O)(=O)c3ccccc3)C(=O)c3ccccc3C2=O)CC1 | 11.2 µM
79 | CCN(Cc1ccccc1)c1ccc(/C=N/N=C(N)N)cc1 | 24.4 µM
80 | Oc1cc(NCCN2CCOCC2)cc2cccnc12 | 24.6 µM
81 | CC1CCCCC1NC(=O)/C(C#N)=C/C=C/c1ccccc1[N+](=O)[O-] (centres undefined) | 27.5 µM
82 | CC(=O)c1cccc(NC(=O)/C=C/c2ccc([N+](=O)[O-])s2)c1 | 16.8 µM
83 | COc1ccc(-c2nn(-c3ccccc3)cc2/C=N/N=C(N)N)cc1OC | 21.9 µM
84 | O=C(CNC(=O)c1ccccc1)N/N=C/c1ccc([N+](=O)[O-])s1 | 26.2 µM
85 | O=C(COC(=O)c1ccccc1C(=O)c1ccc(Cl)c([N+](=O)[O-])c1)NC1CC1 | 15.6 µM
86 | CS(=O)(=O)c1ncc(Cl)c(C(=O)Nc2ccc(N3CCOCC3)cc2)n1 | 10.7 µM
87 | O=C(Nc1nc(-c2ccccn2)cs1)c1ccc([N+](=O)[O-])o1 | 28.5 µM
88 | Cc1ccccc1C(=O)N1CCN(c2ccc(NC(=O)c3ccc([N+](=O)[O-])o3)cc2)CC1 | 9.64 µM

Row | Compound | AC50
89 | CC1CCN(CC(CS(=O)(=O)c2ccc([N+](=O)[O-])cc2)N2CCC(C)CC2)CC1 (centres undefined) | 18.9 µM
90 | CCN(CC)CCC(=O)N1C/C(=C/c2ccccc2)C(=O)/C(=C\c2ccccc2)C1 | 28.3 µM
91 | CCSCCc1nnc(NC(=O)Nc2cccc(C(F)(F)F)c2)s1 | 29 µM
92 | O=C(Cn1ncc(Cl)c(Cl)c1=O)N1CCN(Cc2ccccc2)CC1 | 8.57 µM
93 | CC1CN(C(=O)CCC(=O)NCCCN2CCC(Cc3ccccc3)CC2)c2cc(Cl)ccc2O1 (centres undefined) | 19.4 µM
94 | CC(C)C(=O)N1CCN(c2ccc(NC(=O)c3ccc([N+](=O)[O-])o3)cc2Cl)CC1 | 19.2 µM
95 | O=C(N/N=C/c1ccc([N+](=O)[O-])s1)c1ccccc1Br | 26.9 µM
96 | COC(=O)c1ccc2c(c1O)C(=O)c1ccccc1C2=O | 2.82 µM
97 | CN1CCN(c2ccc(NC(=O)c3ccc([N+](=O)[O-])o3)cc2Cl)CC1 | 21.3 µM
98 | CC(=O)Nc1ccc(S(=O)(=O)NC2=C(N3CCN(C)CC3)C(=O)c3ccccc3C2=O)cc1 | 8.92 µM
99 | C=CCNC1=C(Cl)C(=O)c2ccccc2C1=O | 15.6 µM
100 | Cc1cc(Sc2ncnc(N)c2[N+](=O)[O-])ncn1 | 34 µM
101 | COc1ccc2oc(C(=O)Nc3ccc(S(=O)(=O)N(C)C4CCN(C)CC4)cc3)c(C)c2c1 | 33.5 µM
102 | CN1CCC(N(C)C(=O)/C=C/c2cn(-c3ccccc3)nc2-c2cccs2)CC1 | 29.7 µM
103 | OCCNc1c2ccccc2nc2c(F)c(F)c(F)c(F)c12 | 15.1 µM
104 | O=C1C=CC(=C(c2ccc(O)cc2)c2ccc(O)cc2)C=C1 | 29.4 µM
105 | CCOc1ccc(-c2ccc(SC)nn2)cc1 | 26.5 µM
106 | CCN(CC)CCNC(=O)C1CCN(S(=O)(=O)c2c(C)noc2/C=C/c2ccccc2F)CC1 | 30.4 µM
107 | COc1cccc2sc(N3CCN(C(=O)c4ccc([N+](=O)[O-])o4)CC3)nc12 | 23.4 µM
108 | Cc1cc(C)c[n+](C2=C([O-])c3ccccc3C(=O)/C2=N\S(=O)(=O)c2cccs2)c1 | 9.5 µM
109 | Cc1ccc2nc(N(CCCN(C)C)C(=O)c3ccc4c(c3)CCCC4)sc2c1 | 21.6 µM
